Test results as given in patent US10064858B2, “Methods and compositions for treating bacterial infections with iron chelators” (THE UNITED STATES OF AMERICA, AS REPRESENTED BY THE …, priority 2011, dated 2018).

Tests used:
Format in all cases: cell-based
[1] = tested on: MR Staphylococcus aureus (MRSA); assay: Growth (OD600) with VK28 in M9 media with magnesium and calcium; conditions: M9 with 2 mM MgSO4 and 1.35 mM CaCl2; 24 hours
Method: (§1) In this example, strains of MR Staphylococcus aureus (MRSA), Acinetobacter baumannii (Acinetobacter), Escherichia coli (E. coli), and Pseudomonas aeruginosa (Pseudomonas) were grown in M9 media in the presence of 2 mM MgSO4 and 1.35 mM CaCl2 for 24 hours in the presence or absence of 0 μg/ml, 50 μg/ml, 100 μg/ml, or 200 μg/ml of VK28. The OD600 was measured at 24 hour and the results are shown in the bar graph of FIG. 21.

[2] = tested on: Extended Spectrum Beta-Lactamase (ESBL) Escherichia coli; assay: Growth (OD600) of MDR bacteria with VK28 in low-iron M9 media; conditions: 200 μM VK28
Method: (§2) Isolates of Extended Spectrum Beta-Lactamase (ESBL) Escherichia coli, Klebsiella pneumoniae, Pseudomonas aeruginosa, and Methicillin-Resistant Staphylococcus aureus (MRSA) were challenged with either 0 μM, 100 μM or 200 μM VK28 in low-iron M9 media after 4 hr of growth. Growth was estimated by absorbance at 600 nm at 24 hr post inoculation.

[3] = tested on: Methicillin-Resistant Staphylococcus aureus (MRSA); assay: as above; conditions: both 100 μM and 200 μM VK28
Method: as §2

Klebsiella pneumoniae = assay: as above; conditions: 200 μM VK28
Method: as §2

Pseudomonas aeruginosa [4] = assay: as above; conditions: 200 μM VK28
Method: as §2

Pseudomonas aeruginosa [5] = assay: Growth (OD600) with VK28 in M9 media with magnesium / calcium; conditions: 24 hours
Method: Pseudomonas aeruginosa was grown similar to as described in Example 21 in M9 media containing 2 mM MgSO4 for 24 hours in the presence of 0 μg/ml, 50 μg/ml, 100 μg/ml, or 200 μg/ml VK28. The OD600 was measured at 0, 4, and 24 hour and the results are shown in the time-kill curves of FIG. 20.
as §1

SMILES: OCCN1CCN(Cc2ccc(O)c3ncccc23)CC1 [VK28, 5-(4-(2-hydroxyethyl)piperazin-1-ylmethyl)-8-hydroxyquinoline]
- inhibition of growth (OD600) [1]: inhibition of growth of a number of strains of bacteria is not reduced in the presence of magnesium and calcium
- growth (OD600) at 24 hr post inoculation [2]: reduced
- OD600 at 24 hr post inoculation [3]: significantly reduced
- growth (OD600) at 24 hr post inoculation (Klebsiella pneumoniae): reduced
- OD600 at 24 hr post inoculation (Pseudomonas aeruginosa [4]): significantly reduced
- inhibition of growth (OD600) (Pseudomonas aeruginosa [5]; M9 with 2 mM MgSO4, 50-200 μg/ml VK28): inhibition of growth of Pseudomonas aeruginosa is not reduced in the presence of magnesium
- inhibition of growth (OD600) (Pseudomonas aeruginosa [5]; M9 with 2 mM MgSO4 and 1.35 mM CaCl2): inhibition of growth of a number of strains of bacteria is not reduced in the presence of magnesium and calcium
